# What was measured:
# [1] = tested on: production of various cytokines; experiment: In vitro pharmacology studies, effects on production of various cytokines, activity comparison with thalidomide; format: cell-based, human
# Experimental: The pharmacological properties of 3-(3,4-dimethoxy-phenyl)-3-(1-oxo-1,3-dihydro-isoindol-2-yl)-propionamide, including activity comparisons with thalidomide, are characterized in in vitro studies. Studies examine the effects of 3-(3,4-dimethoxy-phenyl)-3-(1-oxo-1,3-dihydro-isoindol-2-yl)-propionamide on the production of various cytokines. In addition, a safety pharmacology study of -(3,4-dimethoxy-phenyl)-3-(1-oxo-1,3-dihydro-isoindol-2-yl)-propionamide is conducted in dogs and the effects of the compound on ECG parameters are examined further as part of three repeat-dose toxicity studies in primates.
# Inhibition of TNF-α production following LPS-stimulation of human PBMC and human whole blood by 3-(3,4-dimethoxy-phenyl)-3-(1-oxo-1,3-dihydro-isoindol-2-yl)-propionamide is investigated in vitro (Muller et al., Bioorg. Med. Chem. Lett. 9:1625-1630, 1999). The IC50's of 3-(3,4-dimethoxy-phenyl)-3-(1-oxo-1,3-dihydro-isoindol-2-yl)-propionamide for inhibiting production of TNF-α following LPS-stimulation of PBMC and human whole blood is measured.
# (§1) The pharmacological effects of 3-(3,4-dimethoxy-phenyl)-3-(1-oxo-1,3-dihydro-isoindol-2-yl)-propionamide derive from its action as an inhibitor of cellular response to receptor-initiated trophic signals (e.g., IGF-1, VEGF, cyclooxygenase-2), and other activities.
# [2] = tested on: AML cells; experiment: Mitogenic response to VEGF in AML cells (ligand-induced Akt-phosphorylation); format: cell-based; conditions: by extinguishing ligand-induced Akt-phosphorylation
# Text: as §1
# [3] = tested on: MDS bone marrow progenitor formation; experiment: MDS vs normal bone marrow progenitor formation in pre-clinical models; format: cell-based
# Text: as §1
# [4] = tested on: MDS patients; conditions: cited from earlier work; for granulocytopoiesis in treated patients / improvement in hemoglobin or platelet counts: clinical trials of MDS patients
Molecule,granulocytopoiesis in treated patients [4],improvement in hemoglobin or platelet counts [4],further results
"COc1ccc(C(CC(N)=O)N2Cc3ccccc3C2=O)cc1OC (centres unmarked) [3-(3,4-dimethoxy-phenyl)-3-(1-oxo-1,3-dihydro-isoindol-2-yl)-propionamide]",,,generation of inflammatory cytokines [1]: suppresses the generation of inflammatory cytokines; mitogenic response to VEGF [2]: abrogates mitogenic response to VEGF in AML cells; MDS vs normal bone marrow progenitor formation [3]: selectively suppresses MDS vs normal bone marrow progenitor formation
erythropoietin [recombinant human EPO],,,patients with sustained improvement in hemoglobin or decrease in transfusion requirement ([4]; MDS patients treated with recombinant human EPO): less than 25 % of patients
granulocyte macrophage colony stimulating factor [GM-CSF],can restore granulocytopoiesis,little or no improvement,
"granulocyte colony stimulating factor (protein, UniProt P09919 31-207, looked up, granulocyte colony stimulating factor, recombinant human) Granulocyte …: TPLGPASSLPQSFLLKCLEQVRKIQGDGAALQEKLVSECATYKLCHPEELVLLGHSLGIPWAPLSSCPSQALQLAGCLSQLHSGLFLYQGLLQALEGISPELGPTLDTLQLDVADFATTIWQQMEELGMAPALQPTQGAMPAFASAFQRRAGGVLVASHLQSFLEVSYRVLRHLAQP",can restore granulocytopoiesis,little or no improvement,
